According to the supplement of paper PMC11919725:

Experiments:
Jurkat [1] = test: confluency relative to DMSO, 18 h (ratio); higher = more viable
Method in brief: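 Jurkat cells and primary CD4+/CD8+ T cells, naive or activated with CD3/CD28 Dynabeads for 48 h, were treated with compound (1 nM–10 µM, log10 steps) for 18 h at 37 °C. Following transfer of 100 µl into 96-well plates with IncuCyte Cytotox Dye and alamarBlue, wells were imaged at ×10, five images per well, each hour for 3 h. Confluency, obtained with the IncuCyte Basic Analyzer from phase-contrast images, is normalised to the mean of the control wells.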

Jurkat [2] = test: metabolic activity relative to DMSO, 18 h (ratio); higher = more viable
Method in brief: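 Jurkat or primary CD4+/CD8+ T cells (naive, or activated 48 h with CD3/CD28 Dynabeads) were treated 18 h with compound at 1 nM–10 µM (log10 steps) at 37 °C, 5% CO2. Then 100 µl of suspension went into 96-well plates with alamarBlue (10% v/v final). After 3.5 h, fluorescence was read on a FluoStar Omega (excitation 544 nm, emission 584 nm). Metabolic activity is normalised to mean DMSO controls.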

Jurkat [3] = test: cytotoxicity relative to DMSO, 18 h (ratio); higher = less cell death (drugs called cytotoxic fall below 1)
Method in brief: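 Jurkat or primary CD4+/CD8+ T cells (naive, or activated 48 h with CD3/CD28 Dynabeads) were treated 18 h with compound at 1 nM–10 µM (log10 steps) at 37 °C, 5% CO2. Then 100 µl of suspension went into 96-well plates with IncuCyte Cytotox Dye (250 nM final). Cytotoxicity came from IncuCyte fluorescence imaging (×10, five images per well, hourly over 3 h). Signals were corrected for confluency, then normalised to mean DMSO controls.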

| SMILES | confluency (Jurkat [1]; 1 nM) | confluency (Jurkat [1]; 10 nM) | confluency (Jurkat [1]; 100 nM) | confluency (Jurkat [1]; 1000 nM) | confluency (Jurkat [1]; 10000 nM) | metabolic activity (Jurkat [2]; 1 nM) | metabolic activity (Jurkat [2]; 10 nM) | metabolic activity (Jurkat [2]; 100 nM) | metabolic activity (Jurkat [2]; 1000 nM) | metabolic activity (Jurkat [2]; 10000 nM) | cytotoxicity (Jurkat [3]; 1 nM) | cytotoxicity (Jurkat [3]; 10 nM) | cytotoxicity (Jurkat [3]; 100 nM) | cytotoxicity (Jurkat [3]; 1000 nM) | cytotoxicity (Jurkat [3]; 10000 nM) |
| --- | --- | --- | --- | --- | --- | --- | --- | --- | --- | --- | --- | --- | --- | --- | --- |
| CCN(c1cc(-c2ccc(CN3CCOCC3)cc2)cc(C(=O)NCc2c(C)cc(C)[nH]c2=O)c1C)C1CCOCC1 [Tazemetostat] | 0.999 | 0.961 | 0.898 | 0.926 | 0.97 | 0.926 | 0.932 | 0.939 | 1.12 | 1.24 | 0.997 | 0.928 | 0.843 | 0.912 | 1.05 |
| COC1CC2CCC(C)C(O)(O2)C(=O)C(=O)N2CCCCC2C(=O)OC(C(C)CC2CCC(OC(=O)C(C)(CO)CO)C(OC)C2)CC(=O)C(C)C=C(C)C(O)C(OC)C(=O)C(C)CC(C)C=CC=CC=C1C (stereo not given) [Temsirolimus] | 0.971 | 0.876 | 0.899 | 1.02 | 1.05 | 0.977 | 0.927 | 0.903 | 0.93 | 0.762 | 0.937 | 0.781 | 0.787 | 0.958 | 0.925 |
| O=C1CCC(N2C(=O)c3ccccc3C2=O)C(=O)N1 (stereo not given) [Thalidomide] | 0.954 | 0.93 | 1 | 0.99 | 0.975 | 1.17 | 1.26 | 1.27 | 1.13 | 0.925 | 0.981 | 1 | 1.1 | 0.991 | 0.855 |
| CC1CCN(C(=O)CC#N)CC1N(C)c1ncnc2[nH]ccc12 (stereo not given) [Tofacitinib] | 0.957 | 0.941 | 0.983 | 0.961 | 0.844 | 1.23 | 1.27 | 1.02 | 0.928 | 0.908 | 1.01 | 1.06 | 0.922 | 1.02 | 0.851 |
| CC(=O)Nc1cccc(-n2c(=O)n(C3CC3)c(=O)c3c(Nc4ccc(I)cc4F)n(C)c(=O)c(C)c32)c1 [Trametinib] | 1.01 | 1.03 | 1.05 | 1.03 | 1 | 1.12 | 1.08 | 1.15 | 1.1 | 1.02 | 1.14 | 1.12 | 1.26 | 1.12 | 1.02 |
| NC1CC1c1ccccc1 (stereo not given) [Tranylcypromine] | 0.972 | 0.963 | 0.998 | 1.02 | 1 | 1.02 | 0.916 | 1.14 | 1.08 | 0.962 | 0.98 | 0.941 | 1.15 | 1.08 | 0.956 |
| CC(C=CC(=O)NO)=CC(C)C(=O)c1ccc(N(C)C)cc1 (stereo not given) [Trichostatin-A] | 0.999 | 1.03 | 1.03 | 0.99 | 0.96 | 1.21 | 1.17 | 1.17 | 0.97 | 0.904 | 1.27 | 1.25 | 1.22 | 1.06 | 0.98 |
| CN1CCc2c(c3ccccc3n2Cc2ccc(C(=O)NO)cc2)C1 [Tubastatin A] | 0.97 | 0.971 | 0.987 | 0.932 | 0.841 | 1.23 | 1.23 | 1.24 | 1.15 | 1.19 | 1.04 | 1.02 | 1.05 | 0.953 | 0.893 |
| CC(C)Nc1cc(-c2c[nH]c(C(=O)NC(CO)c3cccc(Cl)c3)c2)c(Cl)cn1 (stereo not given) [Ulixertinib] | 1.02 | 1.06 | 0.999 | 1.11 | 0.826 | 1.05 | 1.02 | 0.828 | 0.866 | 0.878 | 0.973 | 1.01 | 0.93 | 0.998 | 0.777 |
| Cc1ncsc1-c1ccc(CNC(=O)C2CC(O)CN2C(=O)C(NC(=O)C2(C#N)CC2)C(C)(C)C)cc1 (stereo not given) [VH298] | 1.01 | 0.995 | 0.998 | 0.962 | 0.901 | 1.04 | 1.08 | 1.13 | 1.14 | 0.896 | 1 | 1.05 | 1.12 | 1.13 | 0.942 |
| Cc1ncsc1-c1ccc(CNC(=O)C2CC(O)CN2C(=O)C(N)C(C)(C)C)cc1 (stereo not given) [VHL ligand 1] | 1.01 | 1.01 | 1.03 | 1.02 | 1.02 | 1.06 | 1.01 | 1.06 | 0.989 | 1.05 | 1.01 | 0.955 | 0.949 | 0.966 | 0.948 |
| CC1(c2nc3c(C(N)=O)cccc3[nH]2)CCCN1 (stereo not given) [Veliparib] | 1.07 | 1.04 | 1.02 | 1.03 | 0.966 | 0.894 | 0.816 | 0.851 | 0.948 | 0.8 | 1.03 | 0.975 | 0.969 | 1.08 | 0.9 |
| CCC1(O)CC2CN(CCc3c([nH]c4ccccc34)C(C(=O)OC)(c3cc4c(cc3OC)N(C=O)C3C(O)(C(=O)OC)C(OC(C)=O)C5(CC)C=CCN6CCC43C65)C2)C1 (stereo not given) [Vincristine] | 0.98 | 0.875 | 0.82 | 0.781 | 0.762 | 0.536 | 0.402 | 0.366 | 0.394 | 0.412 | 0.824 | 0.698 | 0.662 | 0.611 | 0.585 |
| CCn1c(=O)c(-c2ccn[nH]2)cc2c(C)nc(N)nc21 [Voxtalisib] | 1 | 1.01 | 1.02 | 1.02 | 1.04 | 1.05 | 1.02 | 0.993 | 0.924 | 1 | 0.985 | 0.977 | 0.966 | 0.943 | 1.02 |
| CN1CC=CCCOc2cccc(c2)-c2ccnc(n2)Nc2cccc(c2)C1 [Zotiraciclib] | 0.992 | 0.992 | 0.923 | 0.908 | 0.882 | 1.03 | 0.912 | 0.094 | 0.085 | 0.05 | 0.95 | 0.924 | 0.468 | 0.473 | 0.436 |
